Measurements: patent publication US20260356819A1, “OXOISOINDOLINYL-SUBSTITUTED […] DERIVATIVE AND USE THEREOF” (GLUETACS THERAPEUTICS (SHANGHAI) CO., LTD., priority 2023, published 2026)

Assays:
Format in all cases: cell-based
Details in all cases: compounds at 50 nM and 500 nM
WEE1 = target: T1, WEE1 (Homo sapiens, UniProt P30291+Q96SW2); test: Western blot degradation of WEE1 in hPBMCs (24 h)
T1 construct: The supernatant was aspirated as the extracted total cell protein; endogenous in cells; host or cells: human peripheral blood mononuclear cells (hPBMCs)
In short: (§1)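 Read-out is Western blot band grayscale, divided by internal control band and normalised to give percent target protein remaining; degradation rate is 1 minus that value. Cells were human PBMCs exposed to compound at 50 nM and 500 nM for 24 hours.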

IKZF1 = target: T2, IKZF1 (Homo sapiens, UniProt Q13422+Q96SW2); test: Western blot degradation of IKZF1 in hPBMCs (24 h)
T2 construct: The supernatant was aspirated as the extracted total cell protein; endogenous in cells; host or cells: human peripheral blood mononuclear cells (hPBMCs)
In short: as §1

IKZF2 = target: T3, IKZF2 (Homo sapiens, UniProt Q96SW2+Q9UKS7); test: Western blot degradation of IKZF2 in hPBMCs (24 h)
T3 construct: The supernatant was aspirated as the extracted total cell protein; endogenous in cells; host or cells: human peripheral blood mononuclear cells (hPBMCs)
In short: as §1

IKZF3 = target: T4, IKZF3 (Homo sapiens, UniProt Q96SW2+Q9UKT9); test: Western blot degradation of IKZF3 in hPBMCs (24 h)
T4 construct: The supernatant was aspirated as the extracted total cell protein; endogenous in cells; host or cells: human peripheral blood mononuclear cells (hPBMCs)
In short: as §1

CK1α = target: T5, CK1α (Homo sapiens, UniProt P48729+Q96SW2); test: Western blot degradation of CK1α in hPBMCs (24 h)
T5 construct: The supernatant was aspirated as the extracted total cell protein; endogenous in cells; host or cells: human peripheral blood mononuclear cells (hPBMCs)
In short: as §1

GSPT1 = target: T6, GSPT1 (Homo sapiens, UniProt P15170+Q96SW2); test: Western blot degradation of GSPT1 in hPBMCs (24 h)
T6 construct: The supernatant was aspirated as the extracted total cell protein; endogenous in cells; host or cells: human peripheral blood mononuclear cells (hPBMCs)
In short: as §1

T3 sequence (Q9UKS7 whole entry): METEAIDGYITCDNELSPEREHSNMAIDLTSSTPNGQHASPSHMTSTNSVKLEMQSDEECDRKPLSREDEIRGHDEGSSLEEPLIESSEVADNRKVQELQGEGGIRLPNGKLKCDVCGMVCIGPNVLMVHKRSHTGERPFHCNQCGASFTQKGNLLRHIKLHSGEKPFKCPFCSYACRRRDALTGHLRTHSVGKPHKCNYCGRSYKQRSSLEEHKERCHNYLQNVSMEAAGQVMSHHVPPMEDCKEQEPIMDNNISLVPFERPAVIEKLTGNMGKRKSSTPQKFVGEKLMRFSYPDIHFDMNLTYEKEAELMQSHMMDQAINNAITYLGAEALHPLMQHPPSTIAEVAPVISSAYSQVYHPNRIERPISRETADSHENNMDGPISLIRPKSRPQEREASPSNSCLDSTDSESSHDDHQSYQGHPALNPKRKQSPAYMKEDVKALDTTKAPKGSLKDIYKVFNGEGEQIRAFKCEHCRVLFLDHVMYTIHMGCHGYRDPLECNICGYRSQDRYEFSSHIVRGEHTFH
T3 sequence (Q96SW2 whole entry): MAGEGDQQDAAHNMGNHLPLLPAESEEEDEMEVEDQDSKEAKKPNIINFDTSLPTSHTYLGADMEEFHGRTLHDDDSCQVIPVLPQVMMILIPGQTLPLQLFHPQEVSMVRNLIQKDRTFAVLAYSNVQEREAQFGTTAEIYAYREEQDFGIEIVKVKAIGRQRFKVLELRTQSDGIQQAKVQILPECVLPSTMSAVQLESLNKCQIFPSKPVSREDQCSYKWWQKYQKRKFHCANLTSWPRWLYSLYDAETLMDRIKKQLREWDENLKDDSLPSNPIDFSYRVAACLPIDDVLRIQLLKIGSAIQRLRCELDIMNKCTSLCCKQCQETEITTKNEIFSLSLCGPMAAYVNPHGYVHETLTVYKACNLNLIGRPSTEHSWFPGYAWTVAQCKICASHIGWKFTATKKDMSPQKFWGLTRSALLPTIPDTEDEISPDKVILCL
T3 sequence (Q16531 whole entry partner): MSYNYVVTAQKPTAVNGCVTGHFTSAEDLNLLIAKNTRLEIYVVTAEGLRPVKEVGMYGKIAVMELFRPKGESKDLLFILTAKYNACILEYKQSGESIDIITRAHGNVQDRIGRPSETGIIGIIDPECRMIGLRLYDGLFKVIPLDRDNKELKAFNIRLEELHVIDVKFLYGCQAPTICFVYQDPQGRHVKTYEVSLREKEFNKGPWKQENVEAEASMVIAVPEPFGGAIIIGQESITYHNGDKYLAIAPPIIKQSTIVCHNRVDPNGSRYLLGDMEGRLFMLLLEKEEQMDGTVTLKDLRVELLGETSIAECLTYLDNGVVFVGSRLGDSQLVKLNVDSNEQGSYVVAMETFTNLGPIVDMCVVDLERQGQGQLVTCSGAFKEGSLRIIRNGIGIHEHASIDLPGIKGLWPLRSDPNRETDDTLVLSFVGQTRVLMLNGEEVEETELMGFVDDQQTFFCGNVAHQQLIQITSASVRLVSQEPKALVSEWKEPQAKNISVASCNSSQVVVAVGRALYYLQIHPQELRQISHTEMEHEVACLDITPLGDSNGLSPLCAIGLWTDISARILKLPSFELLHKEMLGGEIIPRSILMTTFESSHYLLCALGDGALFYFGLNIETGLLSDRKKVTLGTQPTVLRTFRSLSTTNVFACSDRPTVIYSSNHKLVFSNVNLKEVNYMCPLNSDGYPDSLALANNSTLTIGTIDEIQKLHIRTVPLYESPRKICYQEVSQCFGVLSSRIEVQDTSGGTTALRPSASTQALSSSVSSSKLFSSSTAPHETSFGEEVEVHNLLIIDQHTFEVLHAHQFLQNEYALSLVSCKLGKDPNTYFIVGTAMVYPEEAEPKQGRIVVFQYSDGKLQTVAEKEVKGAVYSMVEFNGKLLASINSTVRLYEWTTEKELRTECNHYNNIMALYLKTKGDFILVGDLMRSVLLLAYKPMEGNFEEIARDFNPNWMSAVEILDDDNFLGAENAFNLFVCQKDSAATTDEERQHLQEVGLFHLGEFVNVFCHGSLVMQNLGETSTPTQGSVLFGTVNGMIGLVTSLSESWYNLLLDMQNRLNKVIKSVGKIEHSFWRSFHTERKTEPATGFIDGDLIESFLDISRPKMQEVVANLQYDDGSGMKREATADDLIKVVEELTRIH
T2 sequence (Q13422 whole entry): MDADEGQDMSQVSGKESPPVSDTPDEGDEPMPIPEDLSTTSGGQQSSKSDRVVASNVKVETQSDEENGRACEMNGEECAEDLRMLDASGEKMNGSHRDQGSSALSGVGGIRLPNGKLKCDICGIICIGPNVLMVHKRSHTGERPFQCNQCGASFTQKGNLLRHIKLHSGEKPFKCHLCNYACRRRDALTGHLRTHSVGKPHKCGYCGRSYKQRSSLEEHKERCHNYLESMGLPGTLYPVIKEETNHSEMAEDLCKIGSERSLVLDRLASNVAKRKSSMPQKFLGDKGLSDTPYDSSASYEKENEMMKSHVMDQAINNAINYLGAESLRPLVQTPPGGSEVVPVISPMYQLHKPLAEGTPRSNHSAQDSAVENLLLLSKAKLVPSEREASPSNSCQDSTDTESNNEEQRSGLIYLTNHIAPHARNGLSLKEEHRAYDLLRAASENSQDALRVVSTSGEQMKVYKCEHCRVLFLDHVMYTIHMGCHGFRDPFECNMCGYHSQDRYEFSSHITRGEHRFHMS
T2 sequence (Q96SW2 whole entry): as the sequence (Q96SW2 whole entry) above
T2 sequence (Q16531 whole entry partner): as the sequence (Q16531 whole entry partner) above
T5 sequence (P48729 whole entry): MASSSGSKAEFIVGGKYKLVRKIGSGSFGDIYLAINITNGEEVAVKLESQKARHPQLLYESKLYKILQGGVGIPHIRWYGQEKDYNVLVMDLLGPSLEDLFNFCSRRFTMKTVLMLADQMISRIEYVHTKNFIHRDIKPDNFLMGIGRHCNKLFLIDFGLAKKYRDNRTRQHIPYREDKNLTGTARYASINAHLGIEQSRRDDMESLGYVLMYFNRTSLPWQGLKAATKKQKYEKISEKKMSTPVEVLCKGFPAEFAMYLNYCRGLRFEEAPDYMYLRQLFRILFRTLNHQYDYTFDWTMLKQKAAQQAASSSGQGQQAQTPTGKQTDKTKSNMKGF
T5 sequence (Q96SW2 whole entry): as the sequence (Q96SW2 whole entry) above
T5 sequence (Q16531 whole entry partner): as the sequence (Q16531 whole entry partner) above
T1 sequence (P30291 whole entry): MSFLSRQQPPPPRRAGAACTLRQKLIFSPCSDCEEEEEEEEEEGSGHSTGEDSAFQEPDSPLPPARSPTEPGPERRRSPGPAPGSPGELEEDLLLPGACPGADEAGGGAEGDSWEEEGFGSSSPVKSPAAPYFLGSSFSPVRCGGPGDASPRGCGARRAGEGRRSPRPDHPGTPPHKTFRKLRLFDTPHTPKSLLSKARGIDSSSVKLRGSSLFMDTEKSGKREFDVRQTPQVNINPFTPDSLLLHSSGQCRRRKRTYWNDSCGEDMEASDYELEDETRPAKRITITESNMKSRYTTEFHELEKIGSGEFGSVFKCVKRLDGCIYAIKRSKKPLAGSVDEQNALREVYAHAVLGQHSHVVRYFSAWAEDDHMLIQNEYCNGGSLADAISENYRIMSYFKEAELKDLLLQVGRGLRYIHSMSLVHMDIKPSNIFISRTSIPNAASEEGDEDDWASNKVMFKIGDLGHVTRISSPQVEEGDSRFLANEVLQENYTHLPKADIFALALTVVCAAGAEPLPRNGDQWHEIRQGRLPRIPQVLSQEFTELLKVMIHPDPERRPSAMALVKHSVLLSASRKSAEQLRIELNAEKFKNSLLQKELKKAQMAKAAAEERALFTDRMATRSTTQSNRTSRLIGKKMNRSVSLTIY
T1 sequence (Q96SW2 whole entry): as the sequence (Q96SW2 whole entry) above
T1 sequence (Q16531 whole entry partner): as the sequence (Q16531 whole entry partner) above
T4 sequence (Q9UKT9 whole entry): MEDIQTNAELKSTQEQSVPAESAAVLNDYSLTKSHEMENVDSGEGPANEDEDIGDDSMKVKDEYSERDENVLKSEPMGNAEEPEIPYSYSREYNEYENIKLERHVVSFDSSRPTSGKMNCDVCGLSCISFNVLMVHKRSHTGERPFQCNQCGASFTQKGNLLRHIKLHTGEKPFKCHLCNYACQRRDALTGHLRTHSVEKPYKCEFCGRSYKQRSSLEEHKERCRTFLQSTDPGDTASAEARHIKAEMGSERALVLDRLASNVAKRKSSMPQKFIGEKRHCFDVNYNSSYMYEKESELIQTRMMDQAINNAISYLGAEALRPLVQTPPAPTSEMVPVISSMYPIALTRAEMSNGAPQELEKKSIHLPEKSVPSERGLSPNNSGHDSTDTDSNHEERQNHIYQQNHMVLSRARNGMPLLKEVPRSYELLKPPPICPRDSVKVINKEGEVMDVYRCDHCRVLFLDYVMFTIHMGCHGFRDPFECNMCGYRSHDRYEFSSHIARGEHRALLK
T4 sequence (Q96SW2 whole entry): as the sequence (Q96SW2 whole entry) above
T4 sequence (Q16531 whole entry partner): as the sequence (Q16531 whole entry partner) above

Compound	WEE1 substrate protein remaining % (WEE1)	IKZF1 substrate protein remaining % (IKZF1)	IKZF2 substrate protein remaining % (IKZF2)	IKZF3 substrate protein remaining % (IKZF3)	CK1α substrate protein remaining % (CK1α)	GSPT1 substrate protein remaining % (GSPT1)
O=C1CCN(N2Cc3cc(CN4CCN(c5noc6ccncc56)CC4)ccc3C2=O)C(=O)N1 [GT-07497, 1-(5-((4-(isoxazolo[4,5-c]pyridin-3-yl)piperazin-1-yl)methyl)-1-oxoisoindolin-2-yl)dihydropyrimidine-2,4(1H,3H)-dione]	A (0% ≤ substrate protein remaining % ≤80%)	A (0% ≤ substrate protein remaining % ≤80%)	A (0% ≤ substrate protein remaining % ≤80%)	B (80%< substrate protein remaining % ≤100%)	A (0% ≤ substrate protein remaining % ≤80%)	A (0% ≤ substrate protein remaining % ≤80%)
O=C1CCN(N2Cc3cc(CN4CCN(c5nsc6cc(F)ccc56)CC4)ccc3C2=O)C(=O)N1 [GT-07500, 1-(5-((4-(6-fluorobenzo[d]isothiazol-3-yl)piperazin-1-yl)methyl)-1-oxoisoindolin-2-yl)dihydropyrimidine-2,4(1H,3H)-dione]	A (0% ≤ substrate protein remaining % ≤80%)	A (0% ≤ substrate protein remaining % ≤80%)	B (80%< substrate protein remaining % ≤100%)	B (80%< substrate protein remaining % ≤100%)	A (0% ≤ substrate protein remaining % ≤80%)	A (0% ≤ substrate protein remaining % ≤80%)
O=C1CCN(N2Cc3cc(CN4CCN(c5c[nH]c6ncccc56)CC4)ccc3C2=O)C(=O)N1 [GT-07502, 1-(5-((4-(1H-pyrrolo[2,3-b]pyridin-3-yl)piperazin-1-yl)methyl)-1-oxoisoindolin-2-yl)dihydropyrimidine-2,4(1H,3H)-dione]	A (0% ≤ substrate protein remaining % ≤80%)	A (0% ≤ substrate protein remaining % ≤80%)	B (80%< substrate protein remaining % ≤100%)	B (80%< substrate protein remaining % ≤100%)	A (0% ≤ substrate protein remaining % ≤80%)	A (0% ≤ substrate protein remaining % ≤80%)
O=C1CCN(N2Cc3cc(CN4CCC(n5cnc6cc(F)ccc65)CC4)ccc3C2=O)C(=O)N1 [GT-07503, 1-(5-((4-(5-fluoro-1H-benzo[d]imidazol-1-yl)piperidin-1-yl)methyl)-1-oxoisoindolin-2-yl)dihydropyrimidine-2,4(1H,3H)-dione]	A (0% ≤ substrate protein remaining % ≤80%)	A (0% ≤ substrate protein remaining % ≤80%)	B (80%< substrate protein remaining % ≤100%)	B (80%< substrate protein remaining % ≤100%)	A (0% ≤ substrate protein remaining % ≤80%)	A (0% ≤ substrate protein remaining % ≤80%)
O=C1CCN(N2Cc3cc(CN4CCC(c5n[nH]c6cc(F)ccc56)CC4)ccc3C2=O)C(=O)N1 [GT-07508, 1-(5-((4-(6-fluoro-1H-indazol-3-yl)piperidin-1-yl)methyl)-1-oxoisoindolin-2-yl)dihydropyrimidine-2,4(1H,3H)-dione]	A (0% ≤ substrate protein remaining % ≤80%)	A (0% ≤ substrate protein remaining % ≤80%)	A (0% ≤ substrate protein remaining % ≤80%)	B (80%< substrate protein remaining % ≤100%)	A (0% ≤ substrate protein remaining % ≤80%)	A (0% ≤ substrate protein remaining % ≤80%)
